These results are taken from patent US20250221966A1, “RXFP1 AGONISTS” (BRISTOL-MYERS SQUIBB COMPANY, priority 2021, published 2025).

This experiment addresses T1, human RXFP1 (Homo sapiens, UniProt Q9HBX9).
T1 construct: expressed in transfected cells
T1 sequence (Q9HBX9 1-757): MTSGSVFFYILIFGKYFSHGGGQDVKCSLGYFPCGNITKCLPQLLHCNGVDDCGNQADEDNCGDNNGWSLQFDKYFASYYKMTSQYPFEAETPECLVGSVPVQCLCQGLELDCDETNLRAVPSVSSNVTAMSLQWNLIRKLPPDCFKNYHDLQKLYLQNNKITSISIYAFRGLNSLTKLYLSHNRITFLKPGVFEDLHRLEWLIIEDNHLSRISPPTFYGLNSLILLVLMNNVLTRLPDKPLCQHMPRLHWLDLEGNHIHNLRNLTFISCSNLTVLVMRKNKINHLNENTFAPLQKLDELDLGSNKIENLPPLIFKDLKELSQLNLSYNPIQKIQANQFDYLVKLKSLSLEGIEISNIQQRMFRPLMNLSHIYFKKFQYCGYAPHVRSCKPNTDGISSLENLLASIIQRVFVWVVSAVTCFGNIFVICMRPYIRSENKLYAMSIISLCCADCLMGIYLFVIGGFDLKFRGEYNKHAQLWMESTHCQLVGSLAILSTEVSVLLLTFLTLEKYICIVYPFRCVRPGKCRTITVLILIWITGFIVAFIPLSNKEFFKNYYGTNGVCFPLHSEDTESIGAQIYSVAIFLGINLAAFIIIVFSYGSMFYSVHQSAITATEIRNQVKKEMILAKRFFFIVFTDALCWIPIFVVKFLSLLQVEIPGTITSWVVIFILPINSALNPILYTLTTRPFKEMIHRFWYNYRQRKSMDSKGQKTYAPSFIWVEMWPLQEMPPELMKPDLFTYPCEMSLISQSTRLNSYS
Nature of the experiment: RXFP1 cAMP assay (hRXFP1 HEK293 cAMP assay, HTRF). Particulars: HEK293 cells stably expressing human RXFP1, 30 min at room temperature, read-out: cAMP hRXFP1 HEK293 Assay EC50. It counts as cell-based. A digest of the protocol: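 Intracellular cAMP was read by HTRF, with potency fitted to a 4-parameter logistic curve. Compound exposure (0.010 nM–50 μM final, 2% DMSO) lasted 30 min at room temperature. Cells were hRXFP1-HEK293 at 1500 per well in IBMX-containing (0.5 mM) HEPES-buffered HBSS.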
In general terms: Changes in cAMP serve as a functional read-out for many G protein-coupled receptors.
What is called EC50 is the concentration needed to bring the measured effect to its halfway point. Take `COc1ccc(C2=NO[C@H]3C[C@H](CO)C[C@@H]23)cc1C(=O)N[C@H]1[C@@H](C(=O)N[C@H](C)C2(C)CC2)[C@H]2CC[C@@H]1/C2=C\CC(O)C(F)(F)F` (some centres unmarked) [compound 815]: the EC50 is 1.5 nM.

As for `COc1ccc(C2=NO[C@H]3C[C@H](CO)CN23)cc1C(=O)N[C@H]1[C@@H](C(=O)Nc2ccc(F)c(C(F)(F)F)c2)[C@H]2CC[C@@H]1/C2=C\C1CCCC1` [compound 816], the EC50 is 1.6 nM.

With `COc1ccc(C2=NO[C@H]3C[C@H](CO)C[C@@H]23)cc1C(=O)N[C@H]1[C@@H](C(=O)N[C@H](C)C2(C)CC2)[C@H]2CC[C@@H]1/C2=C\C1CCCC1` [compound 817], the EC50 came to 1.9 nM.

Consider `COc1ccc(C2=NO[C@H]3C[C@H](CO)CN23)cc1C(=O)N[C@H]1[C@@H](C(=O)Nc2ccc(F)c(C(F)(F)F)c2)[C@H]2CC[C@@H]1/C2=C\CCC(F)(F)F` [compound 818], for which the concentration for a half-maximal effect (EC50) came out at 2.2 nM.

Take `COc1ccc(C2=NO[C@H]3COC[C@@H]23)cc1C(=O)N[C@H]1[C@@H](C(=O)Nc2ccc(F)c(C(F)(F)F)c2)[C@H]2CC[C@@H]1/C2=C\C1CCCC1` [compound 819]: the EC50 was determined as 2.3 nM.

As for `COc1ccc(C2=NO[C@H]3C[C@H](CO)C[C@@H]23)cc1C(=O)N[C@H]1[C@@H](C(=O)Nc2ccc(F)c(C(F)(F)F)c2)[C@H]2CC[C@@H]1/C2=C\CC(O)C(F)(F)F` (some centres unmarked) [compound 820], the EC50 came out at 2.4 nM.

`COc1c(F)cc(C2=NOC3CC(CO)CC23)cc1C(=O)N[C@H]1[C@@H](C(=O)N[C@H](C)C2(C)CC2)[C@H]2CC[C@@H]1/C2=C\CC(O)C(F)(F)F` (some centres unmarked) [compound 821]: the EC50 came out at 2.5 nM.

`COc1ccc(C2=NO[C@H]3CC(CO)C[C@@H]23)cc1C(=O)N[C@H]1[C@@H](C(=O)Nc2ccc(F)c(C(F)(F)F)c2)[C@H]2CC[C@@H]1/C2=C\CC(C)C` (some centres unmarked) [compound 822]: the EC50 is 2.5 nM.

For `COc1ccc(C2=NO[C@H]3C[C@H](CO)C[C@@H]23)cc1C(=O)N[C@H]1[C@@H](C(=O)N[C@H](C)C2(C)CC2)[C@H]2CC[C@@H]1/C2=C\C1CC(F)(F)C1` [compound 823], the concentration for a half-maximal effect (EC50) is 2.6 nM.

On to `COc1ccc(C2=NO[C@H]3CC(CO)C[C@@H]23)cc1C(=O)N[C@H]1[C@@H](C(=O)Nc2ccc(F)c(C(F)(F)F)c2)[C@H]2CC[C@@H]1/C2=C\CCC1CC1` (some centres unmarked) [compound 824], for which the EC50 stood at 2.9 nM.

In the case of `COc1ccc(C2=NO[C@H]3CC(CO)C[C@@H]23)cc1C(=O)N[C@H]1[C@@H](C(=O)Nc2ccc(F)c(C(F)(F)F)c2)[C@H]2CC[C@@H]1/C2=C\CCC(F)(F)F` (some centres unmarked) [compound 825], the EC50 was found to be 2.9 nM.

For the compound `COc1ccc(C2=NO[C@H]3C[C@H](CO)C[C@@H]23)cc1C(=O)N[C@H]1[C@@H](C(=O)Nc2ccc(F)c(C(F)(F)F)c2)[C@H]2CC[C@@H]1/C2=C\CC(O)C(F)(F)F` (some centres unmarked) [compound 826], the EC50 worked out at 3 nM.

On to `COc1ccc(C2=NO[C@H]3COC[C@@H]23)cc1C(=O)N[C@H]1[C@@H](C(=O)Nc2ccc(F)c(C(F)(F)F)c2)[C@H]2CC[C@@H]1/C2=C\C(C)C` [compound 827], for which the EC50 came to 3.1 nM.

As to `COc1ccc(C2=NO[C@H]3C[C@H](CO)C[C@@H]23)cc1C(=O)N[C@H]1[C@@H](C(=O)Nc2ccc(F)c(C(F)(F)F)c2)[C@H]2CC[C@@H]1/C2=C\C1C[C@@H](F)[C@@H](F)C1` (some centres unmarked) [compound 828], the EC50 was determined as 3.3 nM.

Take `COc1ccc(C2=NO[C@H]3COC[C@@H]23)cc1C(=O)N[C@H]1[C@@H](C(=O)Nc2ccc(F)c(C(F)(F)F)c2)[C@H]2CC[C@@H]1/C2=C\CC1CCC1` [compound 829]: the EC50 worked out at 3.4 nM.

Turning to `COc1ccc(C2=NO[C@H]3COC[C@@H]23)cc1C(=O)N[C@H]1[C@@H](C(=O)Nc2ccc(F)c(C(F)(F)F)c2)[C@H]2CC[C@@H]1/C2=C\CCC(F)(F)F` [compound 830], the EC50 was 3.4 nM.

With `COc1ccc(C2=NO[C@H]3C[C@H](CO)C[C@@H]23)cc1C(=O)N[C@H]1[C@@H](C(=O)NC23CC(C)(C2)C3)[C@H]2CC[C@@H]1/C2=C\C[C@@H](O)C(F)(F)F` [compound 831], the EC50 worked out at 3.5 nM.

Take `COc1c(F)cc(C2=NOC3CC(CO)CC23)cc1C(=O)N[C@H]1[C@@H](C(=O)N[C@H](C)C2(C)CC2)[C@H]2CC[C@@H]1/C2=C\CC(O)C(F)(F)F` (some centres unmarked) [compound 832]: the EC50 amounted to 3.6 nM.

As for `COc1ccc(C2=NO[C@H]3C[C@H](CO)CN23)cc1C(=O)N[C@H]1[C@@H](C(=O)Nc2ccc(F)c(C(F)(F)F)c2)[C@H]2CC[C@@H]1/C2=C\C(C)C` [compound 833], the EC50 is 3.7 nM.

As to `COc1c(F)cc(C2=NOC3CC(CO)CC23)cc1C(=O)N[C@H]1[C@@H](C(=O)N[C@H](C)C2(C)CC2)[C@H]2CC[C@@H]1/C2=C\CCC(F)(F)F` (some centres unmarked) [compound 834], the EC50 was 3.8 nM.

For the compound `COc1c(F)cc(C2=NOC(CO)C2)cc1C(=O)N[C@H]1[C@@H](C(=O)Nc2ccc(F)c(C(F)(F)F)c2)[C@H]2CC[C@@H]1/C2=C\CC(O)C(F)(F)F` (some centres unmarked) [compound 835], the EC50 is 3.9 nM.

For the compound `COc1c(F)cc(C2=NOC3CC(CO)CC23)cc1C(=O)N[C@H]1[C@@H](C(=O)Nc2ccc(F)c(C(F)(F)F)c2)[C@H]2CC[C@@H]1/C2=C\CC(O)C(F)(F)F` (some centres unmarked) [compound 836], the EC50 came to 4.1 nM.

Turning to `COc1ccc(C2=NO[C@H]3CC(CO)C[C@@H]23)cc1C(=O)N[C@H]1[C@@H](C(=O)Nc2ccc(F)c(C(F)(F)F)c2)[C@H]2CC[C@@H]1/C2=C\CC1CCC1` (some centres unmarked) [compound 837], the EC50 was 4.3 nM.

With `COc1ccc(C2=NO[C@H]3C[C@H](CO)CN23)cc1C(=O)N[C@H]1[C@@H](C(=O)Nc2ccc(F)c(C(F)(F)F)c2)[C@H]2CC[C@@H]1/C2=C\CC(C)C` [compound 838], the EC50 turned out to be 4.4 nM.

On to `COc1ccc(C2=NO[C@H]3COC[C@@H]23)cc1C(=O)N[C@H]1[C@@H](C(=O)Nc2ccc(F)c(C(F)(F)F)c2)[C@H]2CC[C@@H]1/C2=C\CCC1CC1` [compound 839], for which the EC50 was 4.4 nM.

`COc1ccc(C2=NO[C@H]3CC(CO)C[C@@H]23)cc1C(=O)N[C@H]1[C@@H](C(=O)Nc2ccc(F)c(C(F)(F)F)c2)[C@H]2CC[C@@H]1/C2=C\C1CC(F)(F)C1` (some centres unmarked) [compound 840]: the EC50 worked out at 4.5 nM.

In the case of `COc1ccc(C2=NO[C@H]3CC(CO)C[C@@H]23)cc1C(=O)N[C@H]1[C@@H](C(=O)Nc2ccc(F)c(C(F)(F)F)c2)[C@H]2CC[C@@H]1/C2=C\CC(C)(C)C` (some centres unmarked) [compound 841], the EC50 was found to be 4.7 nM.

As to `COc1ccc(C2=NO[C@H]3COC[C@@H]23)cc1C(=O)N[C@H]1[C@@H](C(=O)N[C@H](C)C2(C)CC2)[C@H]2CC[C@@H]1/C2=C\C1CC(F)(F)C1` [compound 842], the EC50 amounted to 4.9 nM.

Turning to `COc1ccc(C2=NOC3CC(C(C)O)CC23)cc1C(=O)N[C@H]1[C@@H](C(=O)Nc2ccc(F)c(C(F)(F)F)c2)[C@H]2CC[C@@H]1/C2=C\C1CC1` (some centres unmarked) [compound 843], the EC50 came out at 0.9 nM.

With `COc1ccc(C2=NOC3CC(C(C)O)CC23)cc1C(=O)N[C@H]1[C@@H](C(=O)Nc2ccc(F)c(C(F)(F)F)c2)[C@H]2CC[C@@H]1/C2=C\C1CC1` (some centres unmarked) [compound 844], the EC50 came out at 1.2 nM.

For `COc1ccc(C2=NOC3CC(C(C)O)CC23)cc1C(=O)N[C@H]1[C@@H](C(=O)Nc2ccc(F)c(C(F)(F)F)c2)[C@H]2CC[C@@H]1/C2=C\C1CC1` (some centres unmarked) [compound 845], the EC50 stood at 1.3 nM.

Consider `COc1ccc(C2=NO[C@@H]3C[C@H](CO)CN23)cc1C(=O)N[C@H]1[C@@H](C(=O)Nc2ccc(F)c(C(F)(F)F)c2)[C@H]2CC[C@@H]1/C2=C\C1CC1` [compound 846], for which the EC50 came to 1.8 nM.

As to `COc1ccc(C2=NO[C@@H]3C[C@H](C(F)(F)F)CN23)cc1C(=O)N[C@H]1[C@@H](C(=O)Nc2ccc(F)c(C(F)(F)F)c2)[C@H]2CC[C@@H]1/C2=C\C1CC1` [compound 847], the EC50 came to 2.5 nM.

As to `COc1ccc(C2=NOC3CC(C(O)C(F)(F)F)CC23)cc1C(=O)N[C@H]1[C@@H](C(=O)Nc2ccc(F)c(C(F)(F)F)c2)[C@H]2CC[C@@H]1/C2=C\C1CC1` (some centres unmarked) [compound 848], the EC50 worked out at 2.5 nM.

As to `COc1ccc(C2=NO[C@@H]3C[C@@H](CO)CN23)cc1C(=O)N[C@H]1[C@@H](C(=O)Nc2ccc(F)c(C(F)(F)F)c2)[C@H]2CC[C@@H]1/C2=C\C1CC1` [compound 849], the EC50 came out at 2.7 nM.

Regarding `COc1c(F)cc(C2=NOC3CC(C(C)O)CC23)cc1C(=O)N[C@H]1[C@@H](C(=O)Nc2ccc(F)c(C(F)(F)F)c2)[C@H]2CC[C@@H]1/C2=C\C1CC1` (some centres unmarked) [compound 850], the EC50 was 2.7 nM.

As to `COc1ccc(C2=NOC3CC(C(=O)O)CC23)cc1C(=O)N[C@H]1[C@@H](C(=O)Nc2ccc(F)c(C(F)(F)F)c2)[C@H]2CC[C@@H]1/C2=C\C1CC1` (some centres unmarked) [compound 851], the EC50 came to 2.8 nM.

With `COc1c(F)cc(C2=NO[C@@H]3C[C@H](CO)CN23)cc1C(=O)N[C@H]1[C@@H](C(=O)Nc2ccc(F)c(C(F)(F)F)c2)[C@H]2CC[C@@H]1/C2=C\C1CC1` [compound 852], the EC50 worked out at 3.1 nM.
